Measured values reported in patent US10435361B2, “Kinase inhibitors” (Topivert Pharma Limited, priority 2013, dated 2019).

Experiments:
Type in all cases: cell-based
PBMCs [1] = experiment: IL-2 and IFN gamma release in CD3/CD28 stimulated PBMC cells; details: Homo sapiens, assay (c)
Description: PBMCs from healthy subjects are separated from whole blood using a density gradient (Lymphoprep, Axis-Shield Healthcare). Cells are added to a 96 well plate pre-coated with a mixture of CD3/CD28 monoclonal antibodies (0.3 μg/mL eBioscience and 3 μg/mL BD Pharmingen respectively). Compound at the desired concentration is then added to the wells and the plate left for 3 days under normal tissue culture conditions. […] The IC50 is determined from the dose response curve.

PBMCs [2] = experiment: LPS-induced TNFα/IL-8 release in PBMC cells; details: Homo sapiens, assay (b), read-out: IC50 Values for Inhibition of Cytokine Release PBMCs IL-8
Description: Peripheral blood mononuclear cells (PBMCs) from healthy subjects are separated from whole blood using a density gradient (Lymphoprep, Axis-Shield Healthcare). The PBMCs are seeded in 96 well plates and treated with compounds at the desired concentration for 2 hours before addition of 1 ng/mL LPS (Escherichia Coli 0111:B4 from Sigma Aldrich) for 24 hours under normal tissue culture conditions (37° C., 5% CO2). The supernatant is harvested for determination of IL-8 and TNFα concentrations by sandwich ELISA (Duo-set, R&D systems) and read on the fluorescence microplate reader (Varioskan® Flash, ThermoFisher Scientific).

PBMCs [3] = experiment: Cell mitosis assay in PBMCs; details: Homo sapiens, PBMC, 5 μg/mL
Description: Peripheral blood mononucleocytes (PBMCs) from healthy subjects are separated from whole blood (Quintiles, London, UK) using a density gradient (Histopaque®-1077, Sigma-Aldrich, Poole, UK). The PBMCs (3 million cells per sample) are subsequently treated with 2% PHA (phytohaemagglutinin, Sigma-Aldrich, Poole, UK) for 48 hr, followed by a 20 hr exposure to varying concentrations of test compounds. At 2 hr before collection, PBMCs are treated with demecolcine (0.1 μg/mL; Invitrogen, Paisley, UK) to arrest cells in metaphase. To observe mitotic cells, PBMCs are permeabilised and fixed by adding Intraprep (50 μL; Beckman Coulter, France), and stained with anti-phospho-histone 3 (0.26 ng/L; #9701; Cell Signalling, Danvers, Mass.) and propidium iodide (1 mg/mL; Sigma-Aldrich, Poole, UK) as previously described (Muehlbauer P. A. and Schuler M. J., Mutation Research, 2003, 537:117-130). Fluorescence is observed using an ATTUNE flow cytometer (Invitrogen, Paisley, UK), gating for lymphocytes.

[4] = read-out: IC50 Values for Inhibition of Cytokine Release PBMCs IL-2
[5] = read-out: IC50 Values for Inhibition of Cytokine Release PBMCs IFNγ

Row | Structure (SMILES) | IC50 (PBMCs [1]; [4]) [nM] | IC50 (PBMCs [2]) [nM] | inhibition at 5 µg/mL (PBMCs [3]) [%] | IC50 (PBMCs [1]; [5]) [nM]
1 | COCCOCCOCCOc1cc(Nc2nccc(Oc3ccc(NC(=O)Nc4cc(C(C)(C)C)cc(NS(=O)(=O)N5CCOCC5)c4OC)c4ccccc34)n2)cc(OC)c1 [83(b), N-(5-(tert-butyl)-2-methoxy-3-(3-(4-((2-((3-methoxy-5-(2-(2-(2-methoxyethoxy)ethoxy)-ethoxy)phenyl)amino)pyrimidin-4-yl)oxy)naphthalen-1-yl)ureido)phenyl)morpholine-4-sulfonamide] | 109 | 3.7 |  | 
2 | COc1cc(Nc2nccc(Oc3ccc(NC(=O)Nc4cc(C(C)(C)C)cc(NS(C)(=O)=O)c4OC)c4ccccc34)n2)cc(OCCOCCOCCO)c1 [83(c), N-(5-(tert-butyl)-3-(3-(4-((2-((3-(2-(2-(2-hydroxyethoxy)ethoxy)ethoxy)-5-methoxyphenyl)-amino)pyrimidin-4-yl)oxy)naphthalen-1-yl)ureido)-2-methoxyphenyl)methanesulfonamide] |  | 1.8 | 57.1 | 
3 | COc1cc(CO)cc(Nc2cc(Oc3ccc(NC(=O)Nc4cc(C(C)(C)C)cc(C(N)=O)c4OC)c4ccccc34)ccn2)c1 [84(g), 5-tert-Butyl-3-[[4-[[2-[3-(hydroxymethyl)-5-methoxyanilino]-4-pyridyl]oxy]-1-naphthyl]carbamoylamino]-2-methoxybenzamide] | 43.5 | 0.7 | 84.6 | 1.3
4 | CNC(=O)c1cc(C(C)(C)C)cc(NC(=O)Nc2ccc(Oc3ccnc(Nc4cc(CO)cc(OC)c4)c3)c3ccccc23)c1OC [84(h), 5-tert-Butyl-3-[[4-[[2-[3-(hydroxymethyl)-5-methoxyanilino]-4-pyridyl]oxy]-1-naphthyl]carbamoylamino]-2-methoxy-N-methyl-benzamide] | 51.3 | 0.7 | 87 | 1.7
5 | COc1cc(Nc2cc(Oc3ccc(NC(=O)Nc4cc(C(C)(C)C)cc(NS(C)(=O)=O)c4OC)c4ccccc34)ccn2)cc(C(=O)NCCN2CCOC(C)(C)C2)c1 [85(m), 3-[[4-[[4-[[5-tert-Butyl-3-(methanesulfonamido)-2-methoxyphenyl]-carbamoylamino]-1-naphthyl]oxy]-2-pyridyl]amino]-N-[2-(2,2-dimethylmorpholin-4-yl)ethyl]-5-methoxybenzamide] |  | 1.8 | 26.4 | 
6 | COc1cc(Nc2cc(Oc3ccc(NC(=O)Nc4cc(C(C)(C)C)cc(NS(C)(=O)=O)c4OC)c4ccccc34)ccn2)cc(C(=O)NCCN2C[C@@H](C)O[C@@H](C)C2)c1 [85(n), 3-[[4-[[4-[[5-tert-Butyl-3-(methanesulfonamido)-2-methoxyphenyl]-carbamoylamino]-1-naphthyl]oxy]-2-pyridyl]amino]-N-[2-[(2R,6S)-2,6-dimethylmorpholin-4-yl]ethyl]-5-methoxybenzamide] |  | 1.9 | 26.6 | 
7 | COCCOCCNC(=O)c1cc(Nc2cc(Oc3ccc(NC(=O)Nc4cc(C(C)(C)C)cc(NS(C)(=O)=O)c4OC)c4ccccc34)ccn2)cc(OC)c1 [85(u), 3-[[4-[[4-[[5-tert-Butyl-3-(methanesulfonamido)-2-methoxyphenyl]-carbamoylamino]-1-naphthyl]oxy]-2-pyridyl]amino]-5-methoxy-N-[2-(2-methoxyethoxy)-ethyl]benzamide] |  | 1.4 | 38.4 | 
8 | COc1cc(Nc2nccc(Oc3ccc(NC(=O)Nc4cc(C(C)(C)C)cc(NS(C)(=O)=O)c4OC)c4ccccc34)n2)cc(OCCOCCOCCN(C)C)c1 [Example 15, N-(5-(tert-Butyl)-3-(3-(4-((2-((3-(2-(2-(2-(dimethylamino)ethoxy)ethoxy)ethoxy)-5-methoxyphenyl)amino)pyrimidin-4-yl)oxy)naphthalen-1-yl)ureido)-2-methoxyphenyl)-methanesulfonamide] |  | 0.9 | 97.5 | 
9 | COc1cc(Nc2nccc(Oc3ccc(NC(=O)Nc4cc(C(C)(C)C)cc(NS(C)(=O)=O)c4OC)c4ccccc34)n2)cc(OCCOCCOCCN2CCOCC2)c1 [Example 18, N-(5-(tert-Butyl)-2-methoxy-3-(3-(4-((2-((3-methoxy-5-(2-(2-(2-morpholinoethoxy)ethoxy)-ethoxy)phenyl)amino)pyrimidin-4-yl)oxy)naphthalen-1-yl)ureido)phenyl)methanesulfonamide] |  | 1 | 92.7 | 
10 | COCCOCCOCCOc1cc(Nc2nccc(Oc3ccc(NC(=O)Nc4cc(C(C)(C)C)cc(C(=O)NCC(=O)OC)c4OC)c4ccccc34)n2)cc(OC)c1 [Example 37, Methyl 2-(5-(tert-butyl)-2-methoxy-3-(3-(4-((2-((3-methoxy-5-(2-(2-(2-methoxyethoxy)-ethoxy)ethoxy)phenyl)amino)pyrimidin-4-yl)oxy)naphthalen-1-yl)ureido)benzamido)-acetate] |  | 2.2 | 45.9 | 
11 | C#Cc1cc(Nc2cc(Oc3ccc(NC(=O)Nc4cc(C(N)=O)cc(C(C)(C)C)c4)c4ccccc34)ccn2)cc(C(=O)NCCOCCOCCOC)c1 [Example 62, 3-((4-((4-(3-(3-(tert-Butyl)-5-carbamoylphenyl)ureido)naphthalen-1-yl)oxy)pyridin-2-yl)amino)-5-ethynyl-N-(2-(2-(2-methoxyethoxy)ethoxy)ethyl)benzamide] | 48.7 | 4.6 |  | 32.2
12 | C#Cc1cc(Nc2cc(Oc3ccc(NC(=O)Nc4cc(C(C)(C)C)cc(NS(C)(=O)=O)c4OC)c4ccccc34)ccn2)cc(C(=O)N[C@H](C)COCCOCCOC)c1 [Example 68, (R)-3-((4-((4-(3-(5-(tert-Butyl)-2-methoxy-3-(methylsulfonamido)phenyl)ureido)-naphthalen-1-yl)oxy)pyridin-2-yl)amino)-5-ethynyl-N-(1-(2-(2-methoxyethoxy)ethoxy)-propan-2-yl)benzamide] | 220 | 2.8 |  | 68.8
13 | CCOc1c(NC(=O)Nc2ccc(Oc3ccnc(Nc4cc(OC)cc(OCCOCCOCCOC)c4)n3)c3ccccc23)cc(C(C)(C)C)cc1NS(C)(=O)=O [Example 69, N-(5-(tert-butyl)-2-ethoxy-3-(3-(4-((2-((3-methoxy-5-(2-(2-(2-methoxyethoxy)ethoxy)-ethoxy)phenyl)amino)pyrimidin-4-yl)oxy)naphthalen-1-yl)ureido)phenyl)methane-sulfonamide] |  | 1.6 |  | 2.2
14 | COCCOCCOCCOc1cc(Nc2cc(Oc3ccc(NC(=O)Nc4cc(C(C)(C)C)cc(C(=O)NCCN(C)C)c4OC)c4ccccc34)ccn2)cc(OC)c1 [Example 76, 5-(tert-Butyl)-N-(2-(dimethylamino)ethyl)-2-methoxy-3-(3-(4-((2-((3-methoxy-5-(2-(2-(2-methoxyethoxy)ethoxy)ethoxy)phenyl)amino)pyridin-4-yl)oxy)naphthalen-1-yl)ureido)-benzamide] |  | 1.9 | 91.3 | 
15 | COCCOCCOCCOc1cc(Nc2cc(Oc3ccc(NC(=O)Nc4cc(C(C)(C)C)cc(C(=O)NC5COC5)c4OC)c4ccccc34)ccn2)cc(OC)c1 [Example 77, 5-(tert-Butyl)-2-methoxy-3-(3-(4-((2-((3-methoxy-5-(2-(2-(2-methoxyethoxy)ethoxy)ethoxy)-phenyl)amino)pyridin-4-yl)oxy)naphthalen-1-yl)ureido)-N-(oxetan-3-yl)benzamide] |  | 2 |  | 
16 | COc1c(NC(=O)Nc2ccc(Oc3ccnc(Nc4ccccc4)n3)c3ccccc23)cc(C(C)(C)C)cc1C(=O)NC1COC1 [Example 78, 5-(tert-Butyl)-2-methoxy-N-(oxetan-3-yl)-3-(3-(4-((2-(phenylamino)pyrimidin-4-yl)oxy)-naphthalen-1-yl)ureido)benzamide] |  | 14 |  | 
17 | COc1c(NC(=O)Nc2ccc(Oc3ccnc(Nc4ccccc4)c3)c(F)c2F)cc(C(C)(C)C)cc1C(=O)NC1COC1 [Example 82, 5-(tert-Butyl)-3-(3-(2,3-difluoro-4-((2-(phenylamino)pyridin-4-yl)oxy)phenyl)ureido)-2-methoxy-N-(oxetan-3-yl)benzamide] |  | 6.6 |  | 
18 | COCCOCCOCCS(=O)(=O)c1cc(Nc2cc(Oc3ccc(NC(=O)Nc4cc(C(C)(C)C)cc(NS(C)(=O)=O)c4OC)c4ccccc34)ccn2)cc(OC)c1 [Example 85(y), 1-[5-tert-Butyl-3-(methanesulfonamido)-2-methoxyphenyl]-3-[4-[2-[3-methoxy-5-[2-[2-(2-methoxyethoxy)ethoxy]ethylsulfonyl]anilino]pyridin-4-yl]oxy-1-naphthyl]urea] |  | 1.7 | 20.1 | 
